Here are results for four compounds from publication PMC9433906, “Evaluation of the biotechnological potential of peptide Cupiennin 1a and analogs” (Frontiers in Microbiology, 2022).

In series [1] the test system is Human fibroblast (Hfib) cells. The series can be described thus: MTT cytotoxicity test against human fibroblasts (Hfib). Conditions: 24 h; for cytotoxicity against Hfib cells at the other concentrations (in words): concentrations other than the highest. In kind it is cell-based. As for the experimental part:
Human fibroblast (Hfib) cell cultures were cultivated in Dulbecco’s Modified Eagle Medium (DMEM; Sigma-Aldrich, United States) supplemented with 10% fetal bovine serum (Sigma-Aldrich). Hfib were cultured in a humidified incubator containing 5% CO2 at 37°C and 95% humidity.
Hfib cell line was seeded onto 96-well plates (1 × 10^3 cells/well, 100 μl) before treatment and allowed to adhere and grow over the 24 h period. Each peptide was subsequently added at different micromolar concentrations. The results were evaluated using GraphPad Prism 8 software, where a One-Way ANOVA statistical test followed by Bonferroni’s multiple comparisons test was performed.
(§1) Cell viability analyses were performed in technical and biological replicates, and readings were obtained after 24 h of contact with peptides. At the end of the incubation period, MTT (Sigma-Aldrich, United States) was used to assess the ability of living cells to reduce salt 3-[4,5-dimethylthiazole-2-yl]-2,5-diphenyltetrazolium bromide for formazan production. Plates were read at 570 ηm ([Mosmann, 1983]) and results were expressed in the percentage of living cells. The results were analyzed using GraphPad Prism 8 software where a One-Way ANOVA statistical test was followed by Bonferroni’s multiple comparisons test.
Background: Tetrazolium assays rely on reduction of a dye to a coloured formazan, in cell work by metabolically active cells.

The next series deals with RAW 264.7 cells. Kind of series: MTT cytotoxicity test against RAW 264.7. Conditions: 24 h; for toxicity against RAW264.7 cells (in words): tested concentrations of Table 1 (128–16 μg.ml^−1). Format: cell-based, mice. As for the experimental part:
The cell line RAW 264.7 was obtained from the Rio de Janeiro Cell Bank (CR108). These cells are macrophages derived from induced tumors in male BALB/c mice infected with Abelson’s murine leukemia virus ([Raschke et al., 1978]). RAW264.7 cells were grown in DMEM medium (Dulbecco’s Modified Eagle’s medium, composed of CaCl2 (anhydrous) 200 mg.ml^−1, Fe(NO3).9H2O 0.1 mg.ml^−1, KCL 400 mg.ml^−1, MgSO4 (anhydrous) 97.67 mg.ml^−1, NaCL 6.400 mg.ml^−1, NaH2PO4.H2O 125 mg.ml^−1) supplemented with 10% (v/v) of bovine fetal serum, 0.5% (v/v) of DMEM amino acid solution, 0.05% (w/v) gentamicin, 0.5% (w/v) of L-glutamine, and 0.5% (w/v) of penicillin/streptomycin (1,000 U.ml^−1) in an incubator containing 5% CO2, at 37°C, and 95% humidity ([Raschke et al., 1978]; [Nguyen et al., 2017]).
RAW 264.7 cells were seeded in 96-well plates, at a concentration of 10^4 cells/well, and incubated for 24 h. Each peptide was subsequently added at different micromolar concentrations (Table 1). Positive control was performed by cells in culture medium and negative control, as cell culture in lysis solution (10 mM Tris, 1 mM EDTA, and 0.1% Triton X-100, pH 7.4).
as §1

The test system of series [2] is Klebsiella pneumoniae carbapenemase (KPC 1410503). In kind it is cell-based. Conditions: K. pneumoniae carbapenemase—KPC clinical isolate 1410503; 5×10^5 CFU.ml^−1, Mueller-Hinton Broth, 37°C, 24 h, OD 595 nm, biological triplicates; NE = MIC value not found. The procedure: Susceptibility tests were performed using clinical isolates of Klebsiella pneumoniae carbapenemase (KPC 1410503) and methicillin-resistant S. aureus (MRSA 3730592). Tests were also performed with ATCC (American Type Culture Collection) isolates of K. pneumoniae (ATCC 13883) and S. aureus (ATCC 25923).
Two multidrug-resistant clinical isolates and two ATCC isolates were chosen to perform microbial susceptibility testing as models for studies with bacteria susceptible to antimicrobials found in the Gram-Positive and Gram-Negative groups of bacteria.
The broth microdilution method was performed according to the Clinical and Laboratory Standards Institute (CLSI) M07-A10 protocol to determine the Minimum Inhibitory Concentration (MIC; [Clinical Laboratory Standards Institute, 2015]). The assay was performed on 96-well microplates (TPP, United States), containing 5×10^5 CFU.ml^−1 of each tested bacterium per well and different peptide micromolar concentrations (Table 1) in a final volume of 100 μl of Mueller-Hinton Broth (MH). Negative control was represented by bacteria incubated in MH medium, while positive control was represented by culture incubated in MH medium with Amikacin. Plates were kept under agitation at 37°C in a BioTek spectrophotometer (PowerWaveTM HT Microplate Reader) with optical density (OD) readings at 595 nm every 30 min for 24 h. Inhibition results were analyzed using GraphPad Prism 8 software by comparing the OD from negative control wells (100%) to those containing peptides. All tests were performed in biological triplicates.

In brackets after ≈: the same amount, converted by molar mass. Where a SMILES comes first, the peptide text is derived from it.

For `CC(C)C[C@H](NC(=O)[C@H](C)NC(=O)CNC(=O)[C@H](Cc1ccccc1)NC(=O)CN)C(=O)N[C@@H](Cc1ccccc1)C(=O)N[C@@H](CCCCN)C(=O)N[C@@H](CCCNC(=N)N)C(=O)N[C@@H](CC(C)C)C(=O)N[C@@H](C)C(=O)N[C@@H](CCCCN)C(=O)N[C@@H](CCCCN)C(=O)N[C@H](C(=O)N[C@@H](C)C(=O)N[C@@H](CCCCN)C(=O)N[C@H](C(=O)N[C@H](C(=O)N[C@@H](C)C(N)=O)C(C)C)[C@@H](C)O)C(C)C` [Peptide R3b] (H-GFGALFKRLAKKVAKTVA-NH2), the “cytotoxic effect on Hfib cells (in words)” value in series [1] (all concentrations tested) is given as “did not show any cytotoxic effect”. Moreover, the “toxicity to RAW264.7 cells at the MIC concentration (in words)” value in the series with RAW 264.7 cells (R1b: MIC found for KPC1410503, R3b: MIC at high concentrations against all tested microorganisms) is given as “toxic”. Also, the “toxicity against RAW264.7 cells (in words)” value in the series with RAW 264.7 cells is on record as “high toxicity”.

In the case of `CC(C)C[C@H](NC(=O)[C@H](C)NC(=O)CNC(=O)[C@H](Cc1ccccc1)NC(=O)CN)C(=O)N[C@@H](Cc1ccccc1)C(=O)N[C@@H](CCCCN)C(=O)N[C@@H](Cc1ccccc1)C(=O)N[C@@H](CC(C)C)C(=O)N[C@@H](C)C(=O)N[C@@H](CCCCN)C(=O)N[C@@H](C)C(=O)N[C@H](C(=O)N[C@@H](C)C(=O)N[C@@H](CCCCN)C(=O)N[C@@H](C)C(=O)N[C@H](C(=O)N[C@@H](C)C(N)=O)C(C)C)C(C)C` [Peptide R6b] (H-GFGALFKFLAKAVAKAVA-NH2), the “activity on Hfib cells, reducing the cell viability (in words)” value in series [1] (35.4 μM) is reported as “slight activity”. In addition, in series [1] (70.8 μM), the Hfib cells eradicated came out at 100%. The “cell viability (RAW264.7) in the MIC found for the two strains of S. aureus” value with RAW 264.7 cells (at the MIC of R6b for these strains (17.7 μM in Table 3)) came to 62%. Moreover, in the series with RAW 264.7 cells, the “toxicity against RAW264.7 cells (in words)” value is recorded as “high toxicity”.

For `CC(C)C[C@H](NC(=O)[C@H](C)NC(=O)CNC(=O)[C@H](Cc1ccccc1)NC(=O)CN)C(=O)N[C@@H](Cc1ccccc1)C(=O)N[C@@H](CCCCN)C(=O)N[C@@H](CCCNC(=N)N)C(=O)N[C@@H](CC(C)C)C(=O)N[C@@H](C)C(=O)N[C@@H](CCCCN)C(=O)N[C@@H](C)C(=O)N[C@H](C(=O)N[C@@H](C)C(=O)N[C@@H](CCCCN)C(=O)N[C@@H](C)C(=O)N[C@H](C(=O)N[C@@H](C)C(N)=O)C(C)C)C(C)C` [Peptide R8b] (H-GFGALFKRLAKAVAKAVA-NH2), the “Hfib cells killed at the highest concentration” value in series [1] (70.43 (highest concentration)) is reported as 100%. Besides, the “cytotoxicity against Hfib cells at the other concentrations (in words)” value in series [1] is “not harmful”. For the same compound, the “cell viability in RAW264.7 cells from the MIC concentration found for MRSA3730592, S. aureus ATCC25923, K. pneumoniae ATCC13883” value in the series with RAW 264.7 cells (at the MIC of R8b for these strains (17.60 μM in Table 3)) worked out at 59%. Moreover, in series [2], the “Minimum inhibitory concentration (MIC)” value turned out to be 35.21 µM (≈ 64 µg/mL).

Regarding `CC(C)C[C@H](NC(=O)[C@H](CCCNC(=N)N)NC(=O)[C@H](CCCCN)NC(=O)[C@H](Cc1ccccc1)NC(=O)[C@H](CC(C)C)NC(=O)[C@H](CCCCN)NC(=O)CNC(=O)[C@H](Cc1ccccc1)NC(=O)CN)C(=O)N[C@@H](C)C(=O)N[C@@H](CCCCN)C(=O)N[C@@H](C)C(=O)N[C@H](C(=O)N[C@@H](C)C(=O)N[C@@H](CCCCN)C(=O)N[C@@H](C)C(=O)N[C@H](C(=O)N[C@@H](C)C(N)=O)C(C)C)C(C)C` [Peptide R10b] (H-GFGKLFKRLAKAVAKAVA-NH2), the “Hfib cells killed at the highest concentration” value in series [1] (68.3 (highest concentration)) was found to be 100%. In addition, the “cytotoxicity against Hfib cells at the other concentrations (in words)” value in series [1] is recorded as “not harmful”. For the same compound, the “cell viability in RAW cells at the MIC value found for bacteria” value in the series with RAW 264.7 cells (17.07 and 8.53 μM) is given as “more than 50%”. Besides, the “toxicity against RAW264.7 cells (in words)” value in the series with RAW 264.7 cells was “high toxicity”. For the same compound, in series [2], the “Minimum inhibitory concentration (MIC)” value was 17.07 µM (≈ 32 µg/mL).
